Patent US11040975B2, “Carbocyclic nucleoside reverse transcriptase inhibitors” (Merck Sharp & Dohme Corp., priority 2017, dated 2021)

Each compound was assayed against T1, HIV-1 RT enzyme (Human immunodeficiency virus type 1 group M subtype B, UniProt P04585) (assay: RT Polymerase Assay). Conditions: not given.
T1 construct: Full-length wild-type and 2 mutant RT proteins were expressed in Escherichia coli BL21(DE3) cells and purified; made in house; host or cells: Escherichia coli BL21(DE3)
Assay type: biochemical
Source text: The compounds of Formula I, and pharmaceutically acceptable salts thereof, are HIV reverse transcriptase inhibitors. The compounds are useful for inhibiting HIV reverse transcriptase and for inhibiting HIV replication in vitro and in vivo. More particularly, the compounds of Formula I inhibit the polymerase function of HIV-1 reverse transcriptase. The testing of compounds of the Examples of the invention in the assay set forth in the RT Polymerase Assay below, illustrates the ability of compounds of the invention to inhibit the RNA-dependent DNA polymerase activity of HIV-1 reverse transcriptase. The compounds of Formula I may also be useful agents against HIV-2.
Full-length wild-type and 2 mutant RT proteins were expressed in Escherichia coli BL21(DE3) cells and purified. Briefly, the heterodimeric nucleic acid substrate used in the HIV-1 RT polymerase reactions was generated by annealing biotinylated DNA primer to a 500 nucleotide RNA template. The HIV-1 RT enzyme (final concentration of 50 pM) was combined with an inhibitor compound or DMSO (10% DMSO in the final reaction mixture) in assay buffer (62.5 mM Tris-HCl, pH 7.8, 1.25 mM dithiothreitol, 7.5 mM MgCl2, 100 mM KCl, 0.03% CHAPS, 0.125 mM EGTA). This mixture was pre-incubated for 30 minutes at room temperature in microtiter plates. The polymerization reaction was initiated by the addition of template/primer substrate (final concentration: 16.6 nM) and dNTPs (final concentration: 2 μM dCTP, dGTP, dATP, and 66.6 nM Ru-dUTP). After 90 min of incubation at 37° C., reactions were quenched by the addition of EDTA (25 mM). The resulting mixture was incubated for an additional 5 minutes at room temperature followed by transferring the solution (50 μL) to blocked avidin plate from Meso Scale Discovery (MSD). The mixtures were incubated at room temperature for 60 min prior to the quantification of the reaction product via an ECL 6000 imager instrument.
`C#CC1(COP(=O)(O)OP(=O)(O)OP(=O)(O)O)CC(n2cnc3c(=O)[nH]c(N)nc32)CC1O` (racemic) [Example (+/−) 47, ((1S,2S,4R)-4-(2-amino-6-oxo-1,6-dihydro-9H-purin-9-yl)-1-ethynyl-2-hydroxycyclopentyl)methyl tetrahydrogen triphosphate and ((1R,2R,4S)-4-(2-amino-6-oxo-1,6-dihydro-9H-purin-9-yl)-1-ethynyl-2-hydroxycyclopentyl)methyl tetrahydrogen triphosphate] was tested, and the IC50 was 324000 pM. `C#CC1(COP(=O)(O)OP(=O)(O)OP(=O)(O)O)CC(n2cc(C)c(=O)[nH]c2=O)CC1O` (racemic) [Example (+/−) 48, ((1S,2S,4R)-1-ethynyl-2-hydroxy-4-(5-methyl-2,4-dioxo-3,4-dihydropyrimidin-1(2H)-yl)cyclopentyl)methyl tetrahydrogen triphosphate and ((1R,2R,4S)-1-ethynyl-2-hydroxy-4-(5-methyl-2,4-dioxo-3,4-dihydropyrimidin-1(2H)-yl)cyclopentyl)methyl tetrahydrogen triphosphate] was tested, and the IC50 was 114000 pM. For `C#CC1(COP(=O)(O)OP(=O)(O)OP(=O)(O)O)CC(n2ccc(N)nc2=O)CC1O` (racemic) [Example (+/−) 49, ((1S,2S,4R)-4-(4-amino-2-oxopyrimidin-1(2H)-yl)-1-ethynyl-2-hydroxycyclopentyl)methyl tetrahydrogen triphosphate and ((1R,2R,4S)-4-(4-amino-2-oxopyrimidin-1(2H)-yl)-1-ethynyl-2-hydroxycyclopentyl)methyl tetrahydrogen triphosphate], the IC50 was over 1e+08 pM. Compound `N#CC1(COP(=O)(O)OP(=O)(O)OP(=O)(O)O)CC(n2cnc3c(=O)[nH]c(N)nc32)CC1O` (racemic) [Example (+/−) 75, ((1S,2S,4R)-4-(2-amino-6-oxo-1,6-dihydro-9H-purin-9-yl)-1-cyano-2-hydroxycyclopentyl)methyl tetrahydrogen triphosphate and ((1R,2R,4S)-4-(2-amino-6-oxo-1,6-dihydro-9H-purin-9-yl)-1-cyano-2-hydroxycyclopentyl)methyl tetrahydrogen triphosphate] has an IC50 of 444000 pM. For `Cc1cn(C2CC(O)C(C#N)(COP(=O)(O)OP(=O)(O)OP(=O)(O)O)C2)c(=O)[nH]c1=O` (racemic) [Example (+/−) 76, ((1S,2S,4R)-1-cyano-2-hydroxy-4-(5-methyl-2,4-dioxo-3,4-dihydropyrimidin-1(2H)-yl)cyclopentyl)methyl tetrahydrogen triphosphate and ((1R,2R,4S)-1-cyano-2-hydroxy-4-(5-methyl-2,4-dioxo-3,4-dihydropyrimidin-1(2H)-yl)cyclopentyl)methyl tetrahydrogen triphosphate], the IC50 was 523000 pM.

Same assay, conditions: HIV-1 RT 50 pM; 90 min at 37° C.; triphosphates tested; read-out: dNTP IC50
“((1S,2S,4R)-4-(2,4-dichloro-7H-pyrrolo[2,3-d]pyrimidin-7-yl)-1-ethynyl-2-hydroxycyclopentyl)methyl tetrahydrogen triphosphate and ((1R,2R,4S)-4-(2,4-dichloro-7H-pyrrolo[2,3-d]pyrimidin-7-yl)-1-ethynyl-2-hydroxycyclopentyl)methyl tetrahydrogen triphosphate [Example (+/−) 45]” showed an IC50 of 3.38e+07 pM. “((1S,2S,4R)-4-(2,6-dichloro-9H-purin-9-yl)-1-ethynyl-2-hydroxycyclopentyl)methyl tetrahydrogen triphosphate and ((1R,2R,4S)-4-(2,6-dichloro-9H-purin-9-yl)-1-ethynyl-2-hydroxycyclopentyl)methyl tetrahydrogen triphosphate [Example (+/−) 43]” gave an IC50 of over 1e+08 pM. In the case of “((1S,2S,4R)-4-(2-amino-6-chloro-9H-purin-9-yl)-1-ethynyl-2-hydroxycyclopentyl)methyl tetrahydrogen triphosphate and ((1R,2R,4S)-4-(2-amino-6-chloro-9H-purin-9-yl)-1-ethynyl-2-hydroxycyclopentyl)methyl tetrahydrogen triphosphate [Example (+/−) 42]”, the IC50 is reported as 1.32e+07 pM. With “((1S,2S,4R)-4-(4-amino-2-chloro-7H-pyrrolo[2,3-d]pyrimidin-7-yl)-1-ethynyl-2-hydroxycyclopentyl)methyl tetrahydrogen triphosphate and ((1R,2R,4S)-4-(4-amino-2-chloro-7H-pyrrolo[2,3-d]pyrimidin-7-yl)-1-ethynyl-2-hydroxycyclopentyl)methyl tetrahydrogen triphosphate [Example (+/−) 46]” the IC50 was 1.39e+07 pM. “((1S,2S,4R)-4-(6-amino-2-chloro-9H-purin-9-yl)-1-ethynyl-2-hydroxycyclopentyl)methyl tetrahydrogen triphosphate and ((1R,2R,4S)-4-(6-amino-2-chloro-9H-purin-9-yl)-1-ethynyl-2-hydroxycyclopentyl)methyl tetrahydrogen triphosphate [Example (+/−) 44]” showed an IC50 of 2.02e+07 pM. “((1S,2S,4R)-4-(6-amino-2-chloro-9H-purin-9-yl)-1-ethynyl-2-hydroxycyclopentyl)methyl tetrahydrogen triphosphate or ((1R,2R,4S)-4-(6-amino-2-chloro-9H-purin-9-yl)-1-ethynyl-2-hydroxycyclopentyl)methyl tetrahydrogen triphosphate [Example 44B]” showed an IC50 of 9.32e+06 pM. Work on “((1S,2S,4R)-4-(6-amino-2-fluoro-9H-purin-9-yl)-1-ethynyl-2-hydroxycyclopentyl)methyl tetrahydrogen triphosphate and ((1R,2R,4S)-4-(6-amino-2-fluoro-9H-purin-9-yl)-1-ethynyl-2-hydroxycyclopentyl)methyl tetrahydrogen triphosphate [Example (+/−) 41]” yielded an IC50 of 3.46e+06 pM. For “((1S,2S,4R)-4-(6-chloro-2-fluoro-9H-purin-9-yl)-1-ethynyl-2-hydroxycyclopentyl)methyl tetrahydrogen triphosphate and ((1R,2R,4S)-4-(6-chloro-2-fluoro-9H-purin-9-yl)-1-ethynyl-2-hydroxycyclopentyl)methyl tetrahydrogen triphosphate [Example (+/−) 40]”, the IC50 was over 1e+08 pM.
